# pIC50: −log10 of the molar value. Read-outs that look alike come from different tables or passages of the source.
# What was measured:
# [1] = Lipophilicity HPLC determination (logk); assay type: physicochemical; settings: HPLC capacity factor, C18, MeOH 70%/H2O 30%, 30 °C
# [2] = system: PET in spinach chloroplasts; test: Photosynthetic electron transport (PET) inhibition, DCPIP photoreduction; assay type: biochemical, Spinacia oleracea L.; settings: for pIC50: DCPIP photoreduction
# Protocol: The inhibition of photosynthetic electron transport (PET) in spinach chloroplasts was determined spectrophotometrically (Genesys 6, Thermo Scientific, Madison, WI, USA) using an artificial electron acceptor 2,6-dichlorophenol-indophenol (DCPIP). The rate of photosynthetic electron transport was monitored as a photoreduction of DCPIP. Chloroplasts were prepared from Spinacia oleracea L.. The measurements were carried out in phosphate buffer (0.02 mol/L, pH 7.2) containing sucrose (0.4 mol/L), MgCl2 (0.005 mol/L) and NaCl (0.015 mol/L). The chlorophyll concentration was 30 mg/L and the samples were irradiated (~100 W/m^2 with 10 cm distance) with a halogen lamp (250 W). […] The studied compound were dissolved in DMSO due to their limited water solubility. […] The efficiency of studied compounds was expressed as 50% inhibition concentration relative to the untreated control. The standard for these measurements was DCMU (Diurone®).
# [3] = system: spectrum of fungi tested (8 fungal strains); test: Antifungal evaluation, summary over the fungi tested; assay type: cell-based
# Protocol: (§1) Antifungal evaluation was also accomplished with microdilution broth method. On the contrary, there was used RPMI 1640 broth with glutamine as medium and conditions were humid and dark atmosphere, pH 7.0 (adjusted with 0.165 M morpholinepropanesulfonic acid, MOPS) and 35 °C. 8 fungal strains were used (Candida albicans ATCC 44859, Candida tropicalis 156, Candida krusei E28, Candida glabrata 20/I, Trichosporon asahii 1188, Aspergillus fumigatus 231, Lichtheimia corymbifera 272, Trichophyton mentagrophytes 445) together with four antimycotic standards amphotericin B, voriconazole, nystatin and fluconazole.
# [4] = system: Aspergillus fumigatus 231; test: Antifungal evaluation, microdilution broth method; assay type: cell-based; settings: AF
# Protocol: as §1
# [5] = system: Candida albicans ATCC 44859; test: Antifungal evaluation, microdilution broth method; assay type: cell-based; settings: CA
# Protocol: as §1
# Candida glabrata 20/I = test: Antifungal evaluation, microdilution broth method; assay type: cell-based; settings: CG
# Protocol: as §1
# Candida krusei E28 = test: Antifungal evaluation, microdilution broth method; assay type: cell-based; settings: CK
# Protocol: as §1
# Candida tropicalis 156 = test: Antifungal evaluation, microdilution broth method; assay type: cell-based; settings: CT
# Protocol: as §1
# [6] = system: Lichtheimia corymbifera 272; test: Antifungal evaluation, microdilution broth method; assay type: cell-based; settings: LC
# Protocol: as §1
# [7] = system: Trichophyton mentagrophytes 445; test: Antifungal evaluation, microdilution broth method; assay type: cell-based; settings: TM
# Protocol: as §1
# Trichosporon asahii 1188 = test: Antifungal evaluation, microdilution broth method; assay type: cell-based; settings: TA
# Protocol: as §1
# [8] = system: Mycobacterium tuberculosis H37Rv; test: Antimycobacterial in vitro screening, microdilution broth panel method, Alamar Blue; assay type: cell-based; settings: 336 h, M. tuberculosis H37Rv, Middlebrook 7H9, 14 days of incubation
# [9] = system: Staphylococcus epidermidis; test: Antibacterial in vitro screening, microdilution broth method; assay type: cell-based; settings: 80% inhibition of control
# [10] = fungi tested, less active than the standards, read-out: IC80 antifungal
# [11] = Aspergillus fumigatus, 231, 24 h
# [12] = Aspergillus fumigatus, 231, 48 h
# [13] = Candida albicans, ATCC44859, 24 h
# [14] = Candida albicans, ATCC44859, 48 h
# [15] = Nakaseomyces glabratus, 20/I, 24 h
# [16] = Nakaseomyces glabratus, 20/I, 48 h
# [17] = Lichtheimia corymbifera, 272, 24 h
# [18] = Lichtheimia corymbifera, 272, 48 h
# [19] = Trichophyton mentagrophytes, 445, 72 h
# [20] = Trichophyton mentagrophytes, 445, 120 h
# [21] = Trichosporon asahii, 1188, 24 h
# [22] = Trichosporon asahii, 1188, 48 h
SMILES,logk [1],pIC50 [2],"IC80 [4, 11] [µM]","IC80 [4, 12] [µM]","IC80 [5, 13] [µM]","IC80 [5, 14] [µM]",IC80 (Candida glabrata 20/I; [15]) [µM],IC80 (Candida glabrata 20/I; [16]) [µM],"IC80 (Candida krusei E28; Pichia kudriavzevii, E28, 24 h) [µM]","IC80 (Candida krusei E28; Pichia kudriavzevii, E28, 48 h) [µM]","IC80 (Candida tropicalis 156; Candida tropicalis, 156, 24 h) [µM]","IC80 (Candida tropicalis 156; Candida tropicalis, 156, 48 h) [µM]","IC80 [6, 17] [µM]","IC80 [6, 18] [µM]","IC80 [7, 19] [µM]","IC80 [7, 20] [µM]",IC80 (Trichosporon asahii 1188; [21]) [µM],IC80 (Trichosporon asahii 1188; [22]) [µM],other results
"CCCCNc1nccnc1C(N)=O [Compound 4, 3-(Butylamino)pyrazine-2-carboxamide]",0.2287,3.69,–,–,–,–,–,–,–,–,–,–,–,–,–,–,–,–,"IC80 [3, 10]: ≥ 250 µM"
"C[C@@H](c1ncncc1F)[C@](O)(Cn1cncn1)c1ccc(F)cc1F [VOR, voriconazole]",–,–,0.49,0.98,0.008,0.008,250,250,0.98,1.95,250,250,250,250,0.06,0.12,7.81,31.2,–
"C[C@@H]1[C@H](O)[C@@H](C)/C=C/C=C/CC/C=C/C=C/C=C/C=C/C(O[C@H]2O[C@H](C)[C@@H](O)[C@H](N)[C@@H]2O)CC2O[C@](O)(CC(O)C(O)CCC(O)CC(O)CC(O)CC(=O)O[C@H]1C)CC(O)C2C(=O)O (stereo partly drawn) [NYS, nystatin]",–,–,–,–,–,–,–,–,–,–,–,–,–,–,–,–,–,–,IC80 ([4]; 24 h): 1.95 µM; IC80 ([4]; 48 h): 3.9 µM; IC80 ([5]; 24 h): 0.98 µM; IC80 ([5]; 48 h): 1.95 µM; IC80 (Candida glabrata 20/I; 24 h): 1.95 µM; IC80 (Candida glabrata 20/I; 48 h): 3.9 µM; IC80 (Candida krusei E28; 24 h): 1.95 µM; IC80 (Candida krusei E28; 48 h): 3.9 µM; IC80 (Candida tropicalis 156; 24 h): 1.95 µM; IC80 (Candida tropicalis 156; 48 h): 3.9 µM; IC80 ([6]; 24 h): 15.6 µM; IC80 ([6]; 48 h): 31.2 µM; IC80 ([7]; 72 h): 3.9 µM; IC80 ([7]; 120 h): 7.81 µM; IC80 (Trichosporon asahii 1188; 24 h): 1.95 µM; IC80 (Trichosporon asahii 1188; 48 h): 1.95 µM
"NC(=O)c1nccnc1NC1CCCC1 [Compound 11, 3-(Cyclopentylamino)pyrazine-2-carboxamide]",0.2537,4.59,500,> 500,500,> 500,250,> 500,250,500,> 500,> 500,> 500,> 500,500,500,500,> 500,"IC80 [3, 10]: ≥ 250 µM"
"NC(=O)c1nccnc1NC1CCCCC1 [Compound 12, 3-(Cyclohexylamino)pyrazine-2-carboxamide]",0.4523,4.08,15.6,62.5,31.2,62.5,15.6,31.2,15.6,62.5,125,500,250,500,15.6,15.6,31.2,250,"IC80 ([3]; nearly a whole spectrum of fungi tested, after 24 h of incubation, read-out: 80% inhibition of control (IC80), range over fungi): 15.6 to 31.2 µM"
NNC(=O)c1ccncc1 [isoniazid],–,–,–,–,–,–,–,–,–,–,–,–,–,–,–,–,–,–,MIC [8]: 0.39 µg/mL
"CCCCN(CCCC)c1nccnc1C(N)=O [Compound 10, 3-(Dibutylamino)pyrazine-2-carboxamide]",0.5197,–,–,–,–,–,–,–,–,–,–,–,–,–,–,–,–,–,PET inhibition (result in words) [2]: did not inhibit PET
"CCCNc1nccnc1C(N)=O [Compound 3, 3-(Propylamino)pyrazine-2-carboxamide]",0.0038,2.80,–,–,–,–,–,–,–,–,–,–,–,–,–,–,–,–,–
"OC(Cn1cncn1)(Cn1cncn1)c1ccc(F)cc1F [FLU, fluconazole]",–,–,> 500,> 500,0.24,0.24,31.2,250,125,250,> 500,> 500,> 500,> 500,7.81,125,250,500,–
"CN1CCN(c2nccnc2C(N)=O)CC1 [Compound 17, 3-(4-Methylpiperazin-1-yl)pyrazine-2-carboxamide]",−0.4253,–,–,–,–,–,–,–,–,–,–,–,–,–,–,–,–,–,PET inhibition (result in words) [2]: did not inhibit PET
"CCCCCNc1nccnc1C(N)=O [Compound 5, 3-(Pentylamino)pyrazine-2-carboxamide]",0.4563,4.41,–,–,–,–,–,–,–,–,–,–,–,–,–,–,–,–,"IC80 [9]: < 250 µM; IC80 [3, 10]: ≥ 250 µM"
"NC(=O)c1nccnc1N1CCNCC1 [Compound 18, 3-(Piperazin-1-yl)pyrazine-2-carboxamide]",−2.3522,–,–,–,–,–,–,–,–,–,–,–,–,–,–,–,–,–,PET inhibition (result in words) [2]: did not inhibit PET

# — publication PMC6271988, “New Potentially Active Pyrazinamide Derivatives Synthesized Under Microwave Conditions” (Molecules, 2014)
